Test results reported in ChEMBL document CHEMBL1135946, “Design, synthesis and biological activity of novel non-amidine factor Xa inhibitors. Part 1: P(1) structure-activity relationships of the substituted 1-(2-Naphthyl)-1H-pyrazole-5-carboxylamides” (Bioorg Med Chem Lett, 2002).

Key:
[1] = biological target: Plasminogen (Homo sapiens, UniProt P00747); experiment: Inhibitory activity against plasmin
[2] = biological target: Vitamin K-dependent protein C (Homo sapiens, UniProt P04070); experiment: Inhibitory activity against activated protein C
[3] = biological target: T1, Coagulation factor X (Homo sapiens, UniProt P00742); experiment: Inhibitory activity against coagulation factor Xa
[4] = biological target: Prothrombin (Homo sapiens, UniProt P00734); experiment: Inhibitory activity against thrombin
[5] = biological target: Serine protease 1 (Homo sapiens, UniProt P07477); experiment: Inhibitory activity against trypsin
[6] = biological target: Kallikrein-1 (Homo sapiens, UniProt P06870); experiment: Inhibitory activity against kallikrein
[7] = Tested for half life value after oral administration at dosage of 4 mg/kg in rat; assay type: ADME, organism-based; set-up: dose 4 mg/kg, route oral; conditions: in vivo
[8] = Tested for volume of distribution after intravenous administration to Sprague-Dawley rat at dosage of 0.2 mg/kg; assay type: ADME, organism-based; set-up: dose 0.2 mg/kg, route intravenous; conditions: in vivo, read-out: Volume of distribution
[9] = Clearance after iv administration to Sprague-Dawley rat at dosage of 0.2 mg/kg; assay type: ADME, organism-based; set-up: dose 0.2 mg/kg, route intravenous; conditions: in vivo
[10] = biological target: T1, Coagulation factor X; experiment: Tested for inhibitory activity against Coagulation factor Xa (trypsin-like serine protease) of the compound
[11] = Tested for half life value after intravenous administration at dose of 0.2 mg/kg in rat; assay type: ADME, organism-based; set-up: dose 0.2 mg/kg, route intravenous; conditions: in vivo
[12] = Tested for percent bioavailability after oral administration to Sprague-Dawley rat at dosage of 4 mg/kg; conditions: in vivo, read-out: Bioavailabiility
[13] = Oral bioavailability in rat by oral dosing; assay type: ADME, organism-based; conditions: in vivo
[14] = Half-life was determined; assay type: ADME, organism-based; conditions: rat, in vivo

T1 sequence (P00742 41-179 limits assumed): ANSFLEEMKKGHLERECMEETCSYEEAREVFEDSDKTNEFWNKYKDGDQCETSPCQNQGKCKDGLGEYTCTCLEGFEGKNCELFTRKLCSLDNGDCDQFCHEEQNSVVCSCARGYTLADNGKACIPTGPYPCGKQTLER
T1 sequence (P00742 235-488 limits assumed): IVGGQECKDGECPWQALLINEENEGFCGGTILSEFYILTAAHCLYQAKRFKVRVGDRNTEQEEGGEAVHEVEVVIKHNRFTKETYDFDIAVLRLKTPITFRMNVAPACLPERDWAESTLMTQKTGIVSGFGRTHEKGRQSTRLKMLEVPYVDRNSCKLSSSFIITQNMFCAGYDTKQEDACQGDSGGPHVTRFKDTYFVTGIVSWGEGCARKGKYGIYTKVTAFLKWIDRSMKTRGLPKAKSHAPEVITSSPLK
Plasminogen, sequence (P00747 97-580 limits assumed): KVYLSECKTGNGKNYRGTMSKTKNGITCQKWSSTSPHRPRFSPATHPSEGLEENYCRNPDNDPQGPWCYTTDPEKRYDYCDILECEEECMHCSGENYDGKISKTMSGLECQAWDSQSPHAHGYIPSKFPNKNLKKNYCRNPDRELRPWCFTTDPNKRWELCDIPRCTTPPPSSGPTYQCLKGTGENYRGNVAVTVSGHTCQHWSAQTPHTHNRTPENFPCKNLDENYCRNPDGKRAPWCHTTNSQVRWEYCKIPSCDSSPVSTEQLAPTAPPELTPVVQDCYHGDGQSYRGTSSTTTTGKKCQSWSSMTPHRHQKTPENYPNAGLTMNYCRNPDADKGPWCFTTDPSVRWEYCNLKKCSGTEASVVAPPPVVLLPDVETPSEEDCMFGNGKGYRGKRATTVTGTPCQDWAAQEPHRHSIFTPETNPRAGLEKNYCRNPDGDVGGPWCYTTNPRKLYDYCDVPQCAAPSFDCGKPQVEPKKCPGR
Plasminogen, sequence (P00747 581-810 limits assumed): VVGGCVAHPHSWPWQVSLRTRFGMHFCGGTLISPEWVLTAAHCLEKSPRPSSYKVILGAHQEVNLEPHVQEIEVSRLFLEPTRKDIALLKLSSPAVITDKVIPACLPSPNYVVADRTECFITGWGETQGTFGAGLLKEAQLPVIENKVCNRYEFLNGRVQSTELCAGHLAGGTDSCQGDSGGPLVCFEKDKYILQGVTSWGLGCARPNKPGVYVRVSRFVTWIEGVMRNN
Kallikrein-1, sequence (P06870 whole entry): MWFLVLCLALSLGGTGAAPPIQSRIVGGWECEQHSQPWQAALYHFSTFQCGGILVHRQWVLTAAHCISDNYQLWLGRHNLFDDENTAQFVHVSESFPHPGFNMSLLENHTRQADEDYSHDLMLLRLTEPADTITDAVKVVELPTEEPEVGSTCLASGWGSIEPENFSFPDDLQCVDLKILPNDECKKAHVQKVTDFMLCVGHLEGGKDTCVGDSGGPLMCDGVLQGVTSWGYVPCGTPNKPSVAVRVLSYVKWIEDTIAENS
Serine protease 1, sequence (P07477 whole entry): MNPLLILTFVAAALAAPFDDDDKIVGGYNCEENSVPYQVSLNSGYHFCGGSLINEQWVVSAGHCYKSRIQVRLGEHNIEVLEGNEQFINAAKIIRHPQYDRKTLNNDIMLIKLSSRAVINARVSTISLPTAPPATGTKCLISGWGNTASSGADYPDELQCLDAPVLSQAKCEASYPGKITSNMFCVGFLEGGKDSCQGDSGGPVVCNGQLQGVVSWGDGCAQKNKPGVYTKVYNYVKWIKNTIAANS
Vitamin K-dependent protein C, sequence (P04070 43-197 limits assumed): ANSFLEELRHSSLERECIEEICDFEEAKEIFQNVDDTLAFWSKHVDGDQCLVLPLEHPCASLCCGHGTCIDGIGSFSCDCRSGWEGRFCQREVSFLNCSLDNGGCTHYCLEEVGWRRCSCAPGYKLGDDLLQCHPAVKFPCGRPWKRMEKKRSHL
Vitamin K-dependent protein C, sequence (P04070 212-461 limits assumed): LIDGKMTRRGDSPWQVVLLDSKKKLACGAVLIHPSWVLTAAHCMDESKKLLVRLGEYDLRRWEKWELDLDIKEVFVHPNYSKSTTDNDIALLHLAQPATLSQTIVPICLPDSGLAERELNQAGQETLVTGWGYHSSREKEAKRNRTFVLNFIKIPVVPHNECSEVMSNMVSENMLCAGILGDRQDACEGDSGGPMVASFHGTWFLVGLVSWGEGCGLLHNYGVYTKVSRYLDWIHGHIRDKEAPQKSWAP

SMILES	IC50 [1] [µM]	IC50 [2] [µM]	IC50 [3] [nM]	IC50 [4] [µM]	IC50 [5] [µM]	IC50 [6] [µM]	half-life [7] [min]	Vd [8] [L/kg]	clearance [9] [mL/min/kg]	Ki [10] [nM]	half-life [11] [min]	bioavailability [12] [%]	bioavailability [13] [%]	half-life [14] [min]
Cc1cc(C(=O)Nc2ccc(-c3ccccc3S(N)(=O)=O)cc2)n(-c2cc3ccccc3cc2S(N)(=O)=O)n1	> 11	> 11	24	> 11	> 11	> 11	–	–	–	–	–	–	–	–
Cc1cc(C(=O)Nc2ccc(-c3ccccc3S(N)(=O)=O)cc2)n(-c2cc3ccccc3cc2C2=NCCN2)n1	> 11	> 11	7820	> 11	> 11	> 11	–	–	–	–	–	–	–	–
Cc1cc(C(=O)Nc2ccc(-c3ccccc3S(N)(=O)=O)cc2)n(-c2cc3ccccc3cc2CN)n1	> 11	> 11	38	> 11	> 11	> 11	–	–	–	–	–	–	–	–
Cc1cc(C(=O)Nc2ccc(-c3ccccc3S(N)(=O)=O)cc2)n(-c2ccc3cc(Br)ccc3c2)n1	> 11	> 11	18	> 11	> 11	> 11	–	–	–	–	–	–	–	–
Cc1cc(C(=O)Nc2ccc(-c3ccccc3S(N)(=O)=O)cc2)n(-c2cc3ccccc3cc2CO)n1	> 11	> 11	483	> 11	> 11	> 11	–	–	–	–	–	–	–	–
Cc1cc(C(=O)Nc2ccc(-c3ccccc3S(N)(=O)=O)cc2)n(-c2cc3ccccc3cc2F)n1	> 11	> 11	9	> 11	> 11	> 11	360	2.6	17.7	5.7	102	22	–	–
Cc1cc(C(=O)Nc2ccc(-c3ccccc3S(N)(=O)=O)cc2)n(-c2cc3ccccc3cc2C(=O)O)n1	> 11	> 11	376	> 11	> 11	> 11	–	–	–	–	–	–	–	–
Cc1cc(C(=O)Nc2ccc(-c3ccccc3S(N)(=O)=O)cc2)n(-c2cc3ccccc3cc2O)n1	> 11	> 11	> 11000	> 11	> 11	> 11	–	–	–	–	–	–	–	–
NS(=O)(=O)c1ccccc1-c1ccc(NC(=O)c2cc(C(F)(F)F)nn2-c2cc3ccccc3cc2F)cc1	–	–	27	–	–	–	–	–	–	–	–	–	–	–
Cc1cc(C(=O)Nc2ccc(-c3ccccc3S(N)(=O)=O)cc2)n(-c2ccc3cc(O)ccc3c2)n1	> 11	> 11	3510	> 11	> 11	> 11	–	–	–	–	–	–	–	–
Cc1cc(C(=O)Nc2ccc(-c3ccccc3S(N)(=O)=O)cc2)n(-c2cc3ccccc3cc2S(C)(=O)=O)n1	> 11	> 11	45	> 11	> 11	> 11	–	–	–	–	–	–	–	–
Cc1cc(C(=O)Nc2ccc(-c3ccccc3S(N)(=O)=O)cc2)n(-c2cc3ccccc3cc2Br)n1	> 11	> 11	143	> 11	> 11	> 11	–	–	–	–	–	–	–	–
Cc1cc(C(=O)Nc2ccc(-c3ccccc3S(N)(=O)=O)cc2)n(-c2nc3ccc(Cl)cc3s2)n1	–	–	> 11000	–	–	–	–	–	–	–	–	–	–	–
Cc1cc(C(=O)Nc2ccc(-c3ccccc3S(N)(=O)=O)cc2)n(-c2ccc3ccccc3c2)n1	> 11	> 11	104	> 11	> 11	> 11	–	–	–	–	–	–	24.5	144

Other lines, results leading:

IC50 [1] [µM]	IC50 [2] [µM]	IC50 [3] [nM]	IC50 [4] [µM]	IC50 [5] [µM]	IC50 [6] [µM]	half-life [7] [min]	Vd [8] [L/kg]	clearance [9] [mL/min/kg]	Ki [10] [nM]	half-life [11] [min]	bioavailability [12] [%]	bioavailability [13] [%]	half-life [14] [min]	SMILES
> 11	> 11	11	> 11	> 11	> 11	–	–	–	–	–	–	–	–	Cc1cc(C(=O)Nc2ccc(-c3ccccc3S(N)(=O)=O)cc2)n(-c2ccc3cc(Cl)ccc3c2)n1
–	–	4	–	–	–	–	–	–	–	–	–	–	–	NS(=O)(=O)c1ccccc1-c1ccc(NC(=O)c2cc(C(F)(F)F)nn2-c2ccc3cc(Cl)ccc3c2)cc1
> 11	> 11	6	> 11	> 11	> 11	–	–	–	–	–	–	–	–	Cc1cc(C(=O)Nc2ccc(-c3ccccc3S(N)(=O)=O)cc2)n(-c2cc3ccccc3cc2C#N)n1
> 11	> 11	545	> 11	> 11	> 11	–	–	–	–	–	–	–	–	COC(=O)c1cc2ccccc2cc1-n1nc(C)cc1C(=O)Nc1ccc(-c2ccccc2S(N)(=O)=O)cc1
> 11	> 11	1650	> 11	> 11	> 11	–	–	–	–	–	–	–	–	Cc1cc(C(=O)Nc2ccc(-c3ccccc3S(N)(=O)=O)cc2)n(-c2cc3ccccc3cc2C(=N)N(C)C)n1
> 11	> 11	–	> 11	> 11	> 11	–	–	–	–	–	–	–	–	COc1ccc2cc(-n3nc(C)cc3C(=O)Nc3ccc(-c4ccccc4S(N)(=O)=O)cc3)ccc2c1
> 11	> 11	21	> 11	> 11	> 11	–	–	–	–	–	–	–	–	Cc1cc(C(=O)Nc2ccc(-c3ccccc3S(N)(=O)=O)cc2)n(-c2cc3ccccc3cc2C(=N)N)n1
> 11	> 11	24	> 11	> 11	> 11	–	–	–	–	–	–	–	–	Cc1cc(C(=O)Nc2ccc(-c3ccccc3S(N)(=O)=O)cc2)n(-c2cc3ccccc3cc2C(N)=O)n1
